Reference: patent publication US9029076B2, “Tissue preservation and fixation method” (George Mason Research Foundation, Inc., priority 2006, dated 2015)

What was measured:
[1] = system: AKT Thr308; test: RPA phosphoprotein level after 24 h storage of tumor needle samples in preservatives; conditions: 24 h in preservative at 4° C., relative normalized RPA intensity
Protocol: (§1) The RPA format, originated by the present inventors and collaborators (see, e.g., Paweletz et al. (2001) Oncogene 20, 1981-1989), immobilizes an individual test sample in a miniature dilution curve such that an array contains hundreds of different patient samples, treatments, or time points. In the RPA format, each array is incubated with one detection protein (e.g. anti-peptide antibody), and a single analyte endpoint is measured and directly compared across multiple samples. Briefly, the lysates are printed on glass backed nitrocellulose array slides (FAST Slides Whatman, Florham Park, N.J. or ONCYTE slides Grace BioLabs, Bend, Oreg.) using a robotic array printing device (GMS 417 arrayer (Affymetrix, Santa Clara, Calif. or Aushon 2470, Aushon Biosystems, Burlington, Mass. equipped with 125-500 μm pins). Each lysate is printed in a dilution curve representing neat, 1:2, 1:4, 1:8, 1:16 and negative control dilutions. The slides are stored with desiccant (Drierite, W. A. Hammond, Xenia, Ohio) at −20° C. prior to immunostaining.
(§2) Immunostaining is performed on an automated slide stainer per manufacturer's instructions (Autostainer CSA kit, Dako, Carpinteria, Calif.). Each slide is incubated with a single primary antibody at room temperature for 30 minutes. Polyclonal primary antibodies can be, e.g.: GSK3α/β Tyr279/216 (Invitrogen-Biosource, Carlsbad, Calif.), BCL-2, HIF-1α (BD, Franklin Lakes, N.J.), 4EBP1, FKHR ser256, eIF4E, eIF4E ser209, eIF4G, eIF4G ser1108, IGFR-β, IRS-1, IRS-2, IRS-1 ser612, SGK, Bak, Bax, BAD, BAD ser112, BAD ser136, BAD ser155, B-Raf, mTOR, mTOR ser2448, p70S6 Thr389, p70S6 kinase, p70S6 ser371, S6 kinase ser240/244, Akt, Akt ser473, Akt Thr308, 4EBP1 ser65, 4EBP1 ser70, and 4EBP1 Thr37/46 (Cell Signaling Technology, Danvers, Mass.). A negative control slide is incubated with antibody diluent. Secondary antibody can be goat anti-rabbit IgG H+L (1:5000) (Vector Labs, Burlingame, Calif.).
(§3) Each array is scanned, spot intensity analyzed, data normalized, and a standardized, single data value can be generated for each sample on the array (Image Quant v5.2, GE Healthcare, Piscataway, N.J.) or MicroVigene v2.8, Vigene Tech, Billerica, Mass.). Spot intensity is integrated over a fixed area. Local area background intensity is calculated for each spot with the unprinted adjacent slide background. […] The Ward method for two-way hierarchical clustering can be performed using JMP v5.0 (SAS Institute, Cary N.C.). Wilcoxon two-sample rank sum test can be used to compare values between two groups. P values less than 0.05 are considered significant. When one cannot assume a normal distribution of the variables, non-parametric methods are used. Kaplan-Meier (log-rank) survival estimates for univariate survival analysis can be used.
(§4) Briefly, tumor tissues from gastrinoma/liver, mesothelioma and parathyroid tumors were sampled by five needle passes and placed into the preservatives listed in Table 5. […] Immediate lysis and denaturation of the cellular proteins were accomplished by standard Pierce Tissue Protein Extraction Buffer (T-PER), with additional SDS, denaturing reagents, and detergents. The cell samples were stored 24 h in the listed preservatives at 4° C. and then the listed phosphoprotein endpoints were measured. […] Some values dropped to zero while others are markedly elevated compared to the freshly lysed cell baseline. […] They were unable to stabilize the phosphorylation state of key signal proteins over a storage period of 24 hours, which is a typical time delay for cell or tissue shipment. Numbers in the table are relative normalized intensity values using the RPA technology described herein.

[2] = system: AKT ser473; test: as above; conditions: 24 h in preservative at 4° C., relative normalized RPA intensity
Protocol: as §1, §2, §3, §4

[3] = system: CC3 Asp175; test: as above; conditions: 24 h in preservative at 4° C., relative normalized RPA intensity
Protocol: as §1, §2, §3, §4

[4] = system: CREB ser133; test: as above; conditions: 24 h in preservative at 4° C., relative normalized RPA intensity
Protocol: as §1, §2, §3, §4

[5] = system: EGFR Y1148; test: as above; conditions: 24 h in preservative at 4° C., relative normalized RPA intensity
Protocol: as §1, §2, §3, §4

[6] = system: ERK T202/Y204; test: as above; conditions: 24 h in preservative at 4° C., relative normalized RPA intensity
Protocol: as §1, §2, §3, §4

[7] = system: GSK3ab ser21/9; test: as above; conditions: 24 h in preservative at 4° C., relative normalized RPA intensity
Protocol: as §1, §2, §3, §4

[8] = system: IKappa-Ba ser32; test: as above; conditions: 24 h in preservative at 4° C., relative normalized RPA intensity
Protocol: as §1, §2, §3, §4

[9] = system: IRS-1 ser612; test: as above; conditions: 24 h in preservative at 4° C., relative normalized RPA intensity
Protocol: as §1, §2, §3, §4

[10] = system: p38 T180/182; test: as above; conditions: 24 h in preservative at 4° C., relative normalized RPA intensity
Protocol: as §1, §2, §3, §4

[11] = system: phosphoproteins; conditions: for phosphoprotein endpoints, room temperature shipping in fixative versus snap frozen: real time, room temperature shipping conditions, FIGS. 6A, 6B and 7
[12] = system: phosphoproteins; test: Overall phosphoprotein preservation of FNA / tumor needle samples stored 24 h at 4° C.; conditions: compared to directly lysed cell baseline
Protocol: Fine Needle Aspirate (FNA) samples were stored for 24 hours at 4° C. in each of the chemicals/chemical solutions. The cellular samples were further processed for reverse phase protein microarray analysis. […] Each set of 4 horizontal spots by 2 vertical spots represent an original and its replicate sample, printed on the array in two-fold dilutions, for each FNA sample. The dilution series represents undiluted, 1:2, 1:4 and 1:8 dilutions of each sample.
A variety of types of tumor tissues were incubated in a series of conventional preservatives to determine if the preservatives were able to stabilize selected phosphoproteins.

[13] = Gastrinoma/liver tumor, Lysis Buffer = frozen immediately after lysis
[14] = Parathyroid tumor, Lysis Buffer = frozen immediately after lysis

Row | Structure (SMILES) | AKT Thr308 Normalized data [1, 13] | AKT Thr308 Normalized data ([1]; Mesothelioma) | AKT Thr308 Normalized data [1, 14] | AKT ser473 Normalized data [2, 13] | AKT ser473 Normalized data ([2]; Mesothelioma) | AKT ser473 Normalized data [2, 14] | CC3 Asp175 Normalized data [3, 13] | CC3 Asp175 Normalized data ([3]; Mesothelioma) | CC3 Asp175 Normalized data [3, 14] | CREBser133 Normalized data [4, 13] | CREBser133 Normalized data ([4]; Mesothelioma) | CREBser133 Normalized data [4, 14] | EGFR Y1148 Normalized data [5, 13] | EGFR Y1148 Normalized data ([5]; Mesothelioma) | EGFR Y1148 Normalized data [5, 14] | ERK T202/Y204 Normalized data [6, 13] | ERK T202/Y204 Normalized data ([6]; Mesothelioma) | ERK T202/Y204 Normalized data [6, 14] | GSK3ab ser21/9 Normalized data [7, 13] | GSK3ab ser21/9 Normalized data ([7]; Mesothelioma) | other results
1 | OC[C@H]1O[C@@](CO)(O[C@H]2O[C@H](CO)[C@@H](O)[C@H](O)[C@H]2O)[C@@H](O)[C@@H]1O [30% sucrose, sucrose] | 42.04 | 12.13 | 0.00 | 16.16 | 19.36 | 3.27 | 61.02 | 17.90 | 2.23 | 69.03 | 22.82 | 2.09 | 65.97 | 22.84 | 6.14 | 48.68 | 15.67 | 1.15 | 37.27 | 3.12 | GSK3ab ser21/9 Normalized data [7, 14]: 0.00; IKappa-Ba ser32 Normalized data [8, 13]: 69.82; IKappa-Ba ser32 Normalized data ([8]; Mesothelioma): 0.00; IKappa-Ba ser32 Normalized data [8, 14]: 0.33; IRS-1 ser612 Normalized data [9, 13]: 31.46; IRS-1 ser612 Normalized data ([9]; Mesothelioma): 1.84; IRS-1 ser612 Normalized data [9, 14]: 0.00; p38 T180/182 Normalized data [10, 13]: 63.91; p38 T180/182 Normalized data ([10]; Mesothelioma): 28.71; p38 T180/182 Normalized data [10, 14]: 1.15
2 | CO [methanol: water, methanol] | – | – | – | – | – | – | – | – | – | – | – | – | – | – | – | – | – | – | – | – | RPA spot intensities, fixed versus frozen tissue ([11]; FIG. 6A): equivalent spot intensities; phosphoprotein endpoints, room temperature shipping in fixative versus snap frozen [11]: equivalence of the two methods
3 | [Cl-].[Na+] [0.9% saline, sodium chloride] | 9.73 | 8.97 | 0.00 | 3.76 | 9.78 | 1.84 | 14.57 | 10.85 | 5.46 | 24.09 | 17.20 | 5.35 | 39.76 | 24.62 | 6.57 | 10.75 | 7.72 | 0.00 | 12.25 | 9.46 | GSK3ab ser21/9 Normalized data [7, 14]: 0.00; IKappa-Ba ser32 Normalized data [8, 13]: 29.64; IKappa-Ba ser32 Normalized data ([8]; Mesothelioma): 16.87; IKappa-Ba ser32 Normalized data [8, 14]: 1.87; IRS-1 ser612 Normalized data [9, 13]: 4.82; IRS-1 ser612 Normalized data ([9]; Mesothelioma): 2.34; IRS-1 ser612 Normalized data [9, 14]: 0.00; p38 T180/182 Normalized data [10, 13]: 33.41; p38 T180/182 Normalized data ([10]; Mesothelioma): 26.34; p38 T180/182 Normalized data [10, 14]: 4.79
4 | CCO [ethanol] | – | – | – | – | – | – | – | – | – | – | – | – | – | – | – | – | – | – | – | – | preservation of phosphoproteins overall [12]: do not adequately preserve the phosphoproteins
5 | CO [Methanol] | 43.73 | 32.75 | 28.31 | 4.15 | 11.14 | 11.06 | 37.64 | 16.93 | 14.80 | 131.23 | 114.37 | 65.44 | 81.50 | 63.00 | 53.41 | 46.47 | 18.87 | 28.54 | 33.59 | 66.02 | GSK3ab ser21/9 Normalized data [7, 14]: 53.28; IKappa-Ba ser32 Normalized data [8, 13]: 54.98; IKappa-Ba ser32 Normalized data ([8]; Mesothelioma): 41.23; IKappa-Ba ser32 Normalized data [8, 14]: 36.25; IRS-1 ser612 Normalized data [9, 13]: 65.97; IRS-1 ser612 Normalized data ([9]; Mesothelioma): 37.33; IRS-1 ser612 Normalized data [9, 14]: 23.51; p38 T180/182 Normalized data [10, 13]: 76.09; p38 T180/182 Normalized data ([10]; Mesothelioma): 53.36; p38 T180/182 Normalized data [10, 14]: 34.09
6 | CC(C)=O [Acetone] | 25.45 | 30.05 | 21.93 | 4.56 | 27.53 | 13.12 | 38.23 | 26.75 | 29.46 | 91.79 | 83.10 | 83.74 | 65.10 | 49.89 | 81.36 | 46.15 | 55.31 | 77.97 | 35.47 | 55.72 | GSK3ab ser21/9 Normalized data [7, 14]: 123.00; IKappa-Ba ser32 Normalized data [8, 13]: 48.91; IKappa-Ba ser32 Normalized data ([8]; Mesothelioma): 36.08; IKappa-Ba ser32 Normalized data [8, 14]: 49.65; IRS-1 ser612 Normalized data [9, 13]: 33.10; IRS-1 ser612 Normalized data ([9]; Mesothelioma): 10.72; IRS-1 ser612 Normalized data [9, 14]: 40.55; p38 T180/182 Normalized data [10, 13]: 77.58; p38 T180/182 Normalized data ([10]; Mesothelioma): 87.57; p38 T180/182 Normalized data [10, 14]: 72.96
7 | CCO [ethanol:water, ethanol] | – | – | – | – | – | – | – | – | – | – | – | – | – | – | – | – | – | – | – | – | phosphoprotein endpoints, room temperature shipping in fixative versus snap frozen [11]: equivalence of the two methods
8 | OC[C@H]1O[C@H](O[C@H]2O[C@H](CO)[C@@H](O)[C@H](O)[C@H]2O)[C@H](O)[C@@H](O)[C@@H]1O [15% trehalose, Trehalose] | 19.93 | 0.95 | 5.38 | 0.00 | 7.86 | 0.26 | 11.19 | 6.82 | 7.76 | 55.11 | 10.01 | 21.50 | 95.78 | 21.03 | 26.55 | 17.01 | 0.00 | 9.34 | 32.18 | 7.80 | GSK3ab ser21/9 Normalized data [7, 14]: 10.36; IKappa-Ba ser32 Normalized data [8, 13]: 32.99; IKappa-Ba ser32 Normalized data ([8]; Mesothelioma): 13.29; IKappa-Ba ser32 Normalized data [8, 14]: 24.12; IRS-1 ser612 Normalized data [9, 13]: 25.51; IRS-1 ser612 Normalized data ([9]; Mesothelioma): 0.00; IRS-1 ser612 Normalized data [9, 14]: 0.05; p38 T180/182 Normalized data [10, 13]: 36.95; p38 T180/182 Normalized data ([10]; Mesothelioma): 7.39; p38 T180/182 Normalized data [10, 14]: 30.53
